The subject of data set [1] is lung cancer (A-549) cell line. Briefly: Antiproliferative assay, A-549. The settings on record: Homo sapiens, A549; A-549 lung cancer cells; read-out: Antiproliferative Activity IC50 ± SEM, A-549. In kind it is cell-based. Here is the method:
(§1) 4.2.1.2. Assay for antiproliferative effect
(§2) To explore the antiproliferative potential of compounds propidium iodide fluorescence assay was performed using different cell lines such as Panc-1 (pancreas cancer cell line), MCF-7 (breast cancer cell line), HT-29 (colon cancer cell line) and A-549 (epithelial cancer cell line), respectively. To calculate the total nuclear DNA, a fluorescent dye (propidium iodide, PI) is used which can attach to the DNA, thus offering a quick and precise technique. PI cannot pass through the cell membrane and its signal intensity can be considered as directly proportional to quantity of cellular
(§3) DNA. Cells whose cell membranes are damaged or have changed permeability are counted as dead ones. The assay was performed by seeding the cells of different cell lines at a density of 3000-7500 cells/well (in200μl medium) in culture plates followed by incubation for 24h at 37 °C in humidified 5%CO2/95% air atmospheric conditions.
(§4) The medium was removed; the compounds were added to the plates at 10 μM concentrations (in 0.1% DMSO) in triplicates, followed by incubation for 48h. DMSO (0.1%) was used as control. After incubation, medium was removed followed by the addition of PI (25 μl, 50μg/mL in water/medium) to each well of the plates. At -80 °C, the plates were allowed to freeze for 24 h, followed by thawing at 25 °C. A fluorometer (Polar-Star BMG Tech) was used to record the readings at excitation and emission wavelengths of 530 and 620 nm for each well. The percentage cytotoxicity of compounds was calculated using the following formula:
(§5) Where ATC= Absorbance of treated cells and AC= Absorbance of control. Erlotinib was used as positive control in the assay.
(§6) (1 picture or pasted object on this page, not shown here)

Data set [2] concerns breast cancer (MCF-7) cell line. Briefly: Antiproliferative assay, MCF-7. In kind it is cell-based. The settings on record: Homo sapiens, MCF7; MCF-7 breast cancer cells; read-out: Antiproliferative Activity IC50 ± SEM, MCF-7. Here is the method:
as §1, §2, §3, §4, §5

The test system of data set [3] is pancreatic cancer (Panc-1) cell line. Briefly: Antiproliferative assay, Panc-1. The data set is classed as cell-based. The settings on record: Homo sapiens; Panc-1 pancreatic cancer cells; read-out: Antiproliferative Activity IC50 ± SEM, Panc-1. On the procedure: as §1, §2, §3, §4, §5
The subject of data set [4] is colon cancer (HT-29) cell line. Briefly: Antiproliferative assay, HT-29. The data set is classed as cell-based. The settings on record: Homo sapiens; HT-29 colon cancer cells; read-out: Antiproliferative Activity IC50 ± SEM, HT-29. On the procedure:
as §1, §2, §3, §4, §5

Data set [5] concerns four human cancer cell lines (A-549, MCF-7, Panc-1, HT-29). Briefly: Antiproliferative assay, average over four cancer cell lines (GI50). The data set is classed as cell-based. Conditions: Homo sapiens; average IC50 (GI50) over A-549, MCF-7, Panc-1, HT-29. On the procedure: as §1
To explore the antiproliferative potential of compounds propidium iodide fluorescence assay was performed using different cell lines such as Panc-1 (pancreas cancer cell […]
(epithelial cancer cell line), respectively. To calculate the total nuclear DNA, a fluorescent dye (propidium iodide, PI) is used which can attach to the DNA, thus offering a quick and precise technique. PI cannot pass through the cell membrane and its signal intensity can be considered as directly proportional to quantity of cellular
DNA. Cells whose cell membranes are damaged or have changed permeability are counted as dead ones. The assay was performed by seeding the cells of different cell lines at a density of 3000-7500 cells/well (in200μl medium) in culture plates followed […]
as §4
Where ATC= Absorbance of treated cells and AC= Absorbance of control. […]
was used as positive control in the assay.
as §6

Data set [6] addresses T1, EGFR (Homo sapiens, UniProt P00533).
T1 construct: CD, amino acids 645–1186); His6 (N); made in house; host or cells: Sf-9 insect cells (baculovirus; pBlueBacHis2B / pFASTBacHTc
Briefly: EGFR-TK inhibitory assay. The data set is classed as biochemical. Here is the method:
4.2.2. EGFR inhibitory assay
Baculoviral expression vectors including pBlueBacHis2B and pFASTBacHTc were […]
5ʹ upstream to the EGFR sequence comprised a sequence that encoded (His)6. Sf-9 cells were infected for 72h for protein expression. The pellets of Sf-9 cells were solubilized in a buffer containing sodium vanadate (100 μM), aprotinin (10 μg/mL), triton (1%), HEPES buffer(50mM), ammonium molybdate (10 μM), benzamidine HCl (16 μg/mL), NaCl (10 mM),leupeptin (10 μg/mL) and pepstatin (10 μg/mL) at 0°C for 20 min at pH 7.4, followed by centrifugation for 20 min. To eliminate the nonspecifically bound material, a Ni-NTA super flow packed column was used to pass through and wash the crude extract supernatant first with 10mM and then with 100 mM imidazole. Histidine-linked proteins were first eluted with 250 and then with 500 mM imidazole subsequent to dialysis against NaCl (50 mM), HEPES (20 mM), glycerol (10%) and 1 μg/mL each of aprotinin, leupeptin and pepstatin for 120 min. The purification was performed either at 4 °C or on ice. To record autophosphorylation level, EGFR kinase assay was carried out on the basis of DELFIA/Time-Resolved Fluorometry. The compounds were first dissolved in DMSO […]
pH 7.4. Each compound (10 μL) was incubated with recombinant enzyme (10 μL, 5 ng for EGFR, 1:80 dilution in 100 mM HEPES) for 10 min at 25 °C, subsequent to the addition of 5X buffer (10 μL, containing 2 mM MnCl2, 100 μM Na3VO4, 20 mM HEPES and 1 mM DTT) and ATP-MgCl2 (20 μL, containing 0.1 mM ATP and 50 mM MgCl2) and incubation for 1h. The negative and positive controls were included in each plate by the incubation of enzyme either with or without ATP-MgCl2. The liquid was removed after incubation and the plates were washed thrice using wash buffer.
Europium-tagged antiphosphotyrosine antibody (75 μL, 400 ng) was added to each well followed by incubation of 1h and then washing of the plates using buffer. The enhancement solution was added to each well and the signal was recorded at excitation […]
The autophosphorylation percentage inhibition by compounds was calculated using the following equation: […]

In data set [7] the target is T2, BRAF^V600E (Mus musculus, UniProt P28028, V585E).
T2 construct: Mouse full-length GST-tagged BRAFV600E (7.5 ng,; GST; purchased Invitrogen PV3849
Briefly: BRAF^V600E inhibitory assay. In kind it is biochemical. The settings on record: read-out: BRAF^V600E Inhibition IC50 ± SEM. Here is the method: See Supplementary Information. […]
4.2.3. BRAFV600E inhibitory assay
V600E mutant BRAF kinase assay was performed to investigate the activity of tested compounds against BRAF. Mouse full-length GST-tagged BRAFV600E (7.5 ng, Invitrogen, PV3849) was pre-incubated with drug (1 µL) and assay dilution buffer (4 µL) for 60 min at 25 °C. In assay dilution buffer, a solution (5 µL) containing MgCl2 (30 mM), ATP (200 µM), recombinant human full length (200 ng) […] N-terminal His-tagged MEK1 (Invitrogen) was added to start the assay, subsequent to incubation for 25 min at 25 °C. The assay was stopped using 5X protein denaturing buffer (LDS) solution (5 µL). To further denature the protein, heat (70° C) was applied for 5 min. 4- […]
200 V). 10 µL of each reaction was loaded into the precast plates and electrophoresis was allowed to proceed. After completion of electrophoresis, the front part of the precast gel plate (holding hot ATP) was cut and afterwards cast-off. The dried gel was developed using a phosphor screen. A reaction without active enzyme was used as negative control while that containing no inhibitor served as positive control. […]
4.3. Statistical analysis
Computerized Prism 5 program was used to statistically analyzed data using one-way ANOVA test followed by Tukey’s as post ANOVA for multiple comparison at P ≤.05.
Data were presented as mean ± SEM.

Data set [8] is described as follows: in vitro. Conditions: human.
For data set [9], the system named is four evaluated cancer cell lines. Also on record: method as in doi:10.1016/j.arabjc.2023.104612. The settings on record: ref [36]; read-out: GI50 against the four evaluated cancer cell lines; cited from earlier work.
In data set [10] the target is T1, EGFR. Also on record: method as in doi:10.1016/j.arabjc.2023.104612. The settings on record: ref [36]; cited from earlier work.

Each structure is given as a SMILES string. Where two headings read alike, the source gives them in different places.

A word on the IC50: it is the point on the concentration scale where inhibition reaches its midpoint. By viability is commonly meant a per cent measure of how many cells are alive, often set against a control. A lower viability goes with a greater loss of cells. The GI50 is the concentration at which growth is held to half of that of the control.

T1 sequence (P00533 669-1210): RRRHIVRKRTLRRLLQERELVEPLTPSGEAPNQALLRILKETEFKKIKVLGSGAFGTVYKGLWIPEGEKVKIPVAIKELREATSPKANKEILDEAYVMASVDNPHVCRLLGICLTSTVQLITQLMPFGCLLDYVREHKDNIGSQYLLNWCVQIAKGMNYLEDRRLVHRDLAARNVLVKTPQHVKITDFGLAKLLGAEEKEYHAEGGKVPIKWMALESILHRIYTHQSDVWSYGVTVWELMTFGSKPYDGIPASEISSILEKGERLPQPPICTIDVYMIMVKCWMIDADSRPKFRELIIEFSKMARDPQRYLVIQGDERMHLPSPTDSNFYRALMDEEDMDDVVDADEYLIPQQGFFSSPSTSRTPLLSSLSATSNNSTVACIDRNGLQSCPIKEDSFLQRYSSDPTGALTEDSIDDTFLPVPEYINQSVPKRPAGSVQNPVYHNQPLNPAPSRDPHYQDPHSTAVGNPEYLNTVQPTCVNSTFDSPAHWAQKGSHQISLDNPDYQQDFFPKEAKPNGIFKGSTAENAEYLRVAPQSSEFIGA
T2 sequence (P28028 whole entry V585E): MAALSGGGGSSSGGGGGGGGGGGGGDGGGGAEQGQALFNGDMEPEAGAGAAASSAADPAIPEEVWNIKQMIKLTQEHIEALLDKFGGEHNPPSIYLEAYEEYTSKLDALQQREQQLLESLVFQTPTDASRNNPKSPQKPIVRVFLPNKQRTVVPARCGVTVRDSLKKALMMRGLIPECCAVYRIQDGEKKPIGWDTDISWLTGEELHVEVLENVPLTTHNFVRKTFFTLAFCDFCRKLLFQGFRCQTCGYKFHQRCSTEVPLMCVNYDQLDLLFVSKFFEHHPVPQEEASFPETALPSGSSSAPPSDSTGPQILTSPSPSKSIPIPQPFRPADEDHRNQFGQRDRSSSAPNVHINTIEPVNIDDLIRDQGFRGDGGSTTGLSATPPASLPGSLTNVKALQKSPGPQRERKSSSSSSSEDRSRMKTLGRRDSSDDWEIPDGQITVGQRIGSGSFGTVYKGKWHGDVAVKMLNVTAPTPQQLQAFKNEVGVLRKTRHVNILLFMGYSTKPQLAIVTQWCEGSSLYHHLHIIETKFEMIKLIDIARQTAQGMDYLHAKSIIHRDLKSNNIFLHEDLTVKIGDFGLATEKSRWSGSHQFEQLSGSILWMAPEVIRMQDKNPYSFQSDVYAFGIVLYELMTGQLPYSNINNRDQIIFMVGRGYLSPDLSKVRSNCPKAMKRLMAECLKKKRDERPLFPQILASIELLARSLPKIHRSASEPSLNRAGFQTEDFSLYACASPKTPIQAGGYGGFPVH

In the case of `Cc1ccc(-n2c(C)cs/c2=N/Nc2ccc([N+](=O)[O-])cc2[N+](=O)[O-])cc1` [Compound 3f, (Z)-2-(2-(2,4-Dinitrophenyl)Hydrazineylidene)-4-Methyl-3-(p-Tolyl)-2,3-Dihydrothi-Azole], the IC50 in data set [1] is 35 ± 3 nM; in data set [2] it was 40 ± 3 nM; in [3], 37 ± 3 nM; in data set [4] it was 37 ± 3 nM; in data set [5], 37 nM; in data set [6] (read-out: EGFR Inhibition IC50 ± SEM) it was 89 ± 7 nM. Moreover, in [7], the IC50 is 93 ± 8 nM. The “fold less potent than erlotinib (EGFR IC50)” value in [6] (ratio of EGFR IC50 to that of erlotinib) came to 1.1 fold. This compound also came in with a viability at 96 h, 50 µM in data set [8] of 89%.

As to `COc1cccc(-n2c(-c3ccccc3)cs/c2=N\c2c[nH]c(=O)[nH]c2=O)c1` [Compound V], the GI50 in data set [9] was 900 nM. Besides, in [10], the 50% inhibitory concentration (IC50) is 74 ± 7 nM.

Values taken from article PMC10384562, “Synthesis and Structure Determination of Substituted Thiazole Derivatives as EGFR/BRAF^V600E Dual Inhibitors Endowed with Antiproliferative Activity” (Pharmaceuticals, 2023).
